These results are taken from ChEMBL document CHEMBL1156969 (Bioorg Med Chem Lett, 2010).

For data set [1], the species on record is Homo sapiens. Description: Selectivity ratio of Ki for human melatonin MT1 receptor to Ki for human melatonin MT2 receptor.
Data set [2] has as its target T1, Melatonin receptor type 1B (Homo sapiens, UniProt P49286).
T1 sequence (P49286 whole entry): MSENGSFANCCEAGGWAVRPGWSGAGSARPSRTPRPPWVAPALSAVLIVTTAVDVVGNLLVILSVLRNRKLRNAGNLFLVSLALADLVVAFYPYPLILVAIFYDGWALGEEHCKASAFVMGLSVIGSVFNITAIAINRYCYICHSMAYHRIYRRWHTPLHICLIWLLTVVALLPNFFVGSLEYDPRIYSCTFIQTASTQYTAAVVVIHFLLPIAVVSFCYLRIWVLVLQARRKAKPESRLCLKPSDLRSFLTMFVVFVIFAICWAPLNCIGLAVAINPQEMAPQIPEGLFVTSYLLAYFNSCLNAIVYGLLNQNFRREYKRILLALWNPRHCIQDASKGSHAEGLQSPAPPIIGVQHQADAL
Description: Displacement of [3H]melatonin from human melatonin MT2 receptor expressed in CHO cells after 60 mins by scintillation counting. In kind it is cell-based. In general terms: In a radioligand displacement assay an active substance lowers the binding of a labelled ligand.

In data set [3] the target is Melatonin receptor type 1A (Homo sapiens, UniProt P48039). Description: Displacement of [3H]melatonin from human melatonin MT1 receptor expressed in CHO cells after 60 mins by scintillation counting. In kind it is cell-based.
Data set [4] deals with T2, Melatonin receptor type 1B (Homo sapiens) (UniProt P49286).
T2 sequence (whole entry): T1 sequence (P49286 whole entry)
Description: Agonist activity at human MT2 receptor expressed as CHO cells assessed as intracellular Ca2+ accumulation by FLIPR assay. The class given is functional, cell-based.

Data set [5] in a line: Lipophilicity, log P of the compound. The class given is physicochemical. To be noted: octanol/water.

pKi: −log10 of the molar value. Calls of active or inactive are those of the source. No cut-off for these calls is given here.

Chain of Melatonin receptor type 1A (P48039 whole entry): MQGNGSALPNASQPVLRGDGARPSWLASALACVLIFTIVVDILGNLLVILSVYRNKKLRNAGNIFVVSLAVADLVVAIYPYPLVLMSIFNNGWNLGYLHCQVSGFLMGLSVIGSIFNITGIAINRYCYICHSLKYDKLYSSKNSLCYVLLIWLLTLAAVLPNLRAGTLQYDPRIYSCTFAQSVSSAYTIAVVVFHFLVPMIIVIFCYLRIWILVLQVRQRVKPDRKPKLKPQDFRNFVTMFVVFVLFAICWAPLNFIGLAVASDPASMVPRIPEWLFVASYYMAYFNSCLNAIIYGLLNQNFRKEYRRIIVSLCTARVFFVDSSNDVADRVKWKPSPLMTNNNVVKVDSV

For orientation: pKi means the negative decadic logarithm of the Ki, by convention in mol/L. The low end stands for a large Ki, the high end for a small Ki. For `COc1cccc(CCCNC(C)=O)c1`, the Ratio Ki in data set [1] is 31. Moreover, the pKi in data set [2] was 9.12; in data set [3], 7.63.

As for `COc1ccc(OCc2ccc(Br)cc2F)c(CCCNC(C)=O)c1`, the pKi in data set [2] is 6.99.

`COc1cc(COc2ccc(OC)cc2CCCNC(C)=O)cc(OC)c1` showed a pKi in data set [2] of 10.49.

Turning to `CCC(=O)NCCCc1cccc(OC)c1`, in data set [1], the Ratio Ki was found to be 12. Besides, the pKi in data set [2] is 8.15; in data set [3], 7.07.

Consider `COc1ccc(OC)c(CCCNC(C)=O)c1`, for which, in data set [1], the Ratio Ki was found to be 49.1. For the same compound, the negative-log Ki (pKi) was 7.58 in data set [2] and 5.89 in data set [3].

As to `COc1ccc(OCc2ccccc2)c(CCCNC(C)=O)c1`, the Ratio Ki in data set [1] was 18700. The negative logarithm of the Ki (pKi) was 10.33 in data set [2] and 6.06 in data set [3].

Take `COc1ccc(OCc2ccccn2)c(CCCNC(C)=O)c1`: the Ratio Ki in data set [1] worked out at 1150. The pKi was 8.79 in data set [2] and 5.74 in data set [3].

Consider `CCC(=O)NCCCc1cc(OC)ccc1OCc1ccccc1`, for which the Ratio Ki in data set [1] is 473000. Moreover, the outcome in data set [4] was Active. For the same compound, the pKi in data set [2] is 12.26; in data set [3], 6.58.

For `COc1ccc(OCc2ccccc2)c(CCCNC(=O)c2ccccc2)c1`, the pKi in data set [2] is 5.64.

For the compound `COc1cc(CCCNC(C)=O)ccc1O`, the Ratio Ki in data set [1] is 20.5. Further, the figures for the negative-log Ki (pKi) in data set [2] and in data set [3] were 7.90 and 6.59, respectively.

On to `COc1cc(CCCNC(C)=O)ccc1OCc1ccccc1`, for which the Ratio Ki in data set [1] worked out at 130. In addition, the values for the negative-log Ki (pKi) in data set [2] and in data set [3] were 7.16 and 5.05, respectively.

On to `COc1ccc(COc2ccc(OC)cc2CCCNC(C)=O)cc1`, for which, in data set [1], the Ratio Ki was found to be 97. The pKi was 7.55 in data set [2] and 5.57 in data set [3].

As for `CCCC(=O)NCCCc1cc(OC)ccc1OCc1ccccc1`, in data set [1], the Ratio Ki was 1.14e+06. The result in data set [4] was Active. Besides, the pKi in data set [2] is 11.99; in data set [3], 5.93.

Take `COc1ccc(OCCc2ccccc2)c(CCCNC(C)=O)c1`: in data set [1], the Ratio Ki amounted to 219. Also, the pKi is 7.87 in data set [2] and 5.53 in data set [3].

As for `COc1ccc(OCCCc2ccccc2)c(CCCNC(C)=O)c1`, in data set [2], the pKi is 7.14.

`CCOc1ccc(OC)cc1CCCNC(C)=O`: the Ratio Ki in data set [1] amounted to 116. Besides, the pKi in data set [2] is 8.80; in data set [3], 6.74.

`COc1cccc(COc2ccc(OC)cc2CCCNC(C)=O)c1`: the pKi in data set [3] is 6.15.

Regarding `CCCOc1ccc(OC)cc1CCCNC(C)=O`, the Ratio Ki in data set [1] amounted to 189. Also, the pKi was 8.67 in data set [2] and 6.40 in data set [3].

As a reminder, the logP is the decadic logarithm of the partition coefficient of the neutral form, usually between octanol and water. Consider `COc1ccc2[nH]cc(CCNC(C)=O)c2c1` [MELATONIN], for which, in data set [5], the log partition coefficient (logP) was 2.16.

In the case of `COc1ccc(O)c(CCCNC(C)=O)c1`, in data set [1], the Ratio Ki was 8.22. Further, the results for the pKi in data set [2] and in data set [3] were 7.34 and 6.42, respectively.

`CCC(=O)NCCCc1ccc(OCc2ccccc2)c(OC)c1`: the Ratio Ki in data set [1] amounted to 16.7. Besides, the pKi in data set [2] was 6.92; in data set [3], 5.70.

For the compound `COc1cccc(COc2ccc(CCCNC(C)=O)cc2OC)c1`, the Ratio Ki in data set [1] came out at 13.9. Also, the pKi was 6.98 in data set [2] and 5.84 in data set [3].
